Assay results: ChEMBL document CHEMBL1201862, “PubChem BioAssay data set” (2004)
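These data come from cells grown in 96-well plates and exposed to compound for 48 hours at five concentrations. At the GI50, growth is halved.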 The source made the active and inactive calls. Rule as the data show it: active = GI50 up to about 1.1 µM and inactive = higher.

Assays:
Assay in all cases: NCI tumour cell line growth inhibition, 48 h
OVCAR-3 = test system: OVCAR-3
MCF7 = test system: MCF7
BT-549 = test system: BT-549
UACC-62 = test system: UACC-62
SK-OV-3 = test system: SK-OV-3
OVCAR-5 = test system: OVCAR-5
HCT-116 = test system: HCT-116
SNB-19 = test system: SNB-19
Malme-3M = test system: Malme-3M
NCI-H460 = test system: NCI-H460
NCI-H23 = test system: NCI-H23
Hs-578T = test system: Hs-578T
SR = test system: SR
SN12C = test system: SN12C
HCT-15 = test system: HCT-15
HT-29 = test system: HT-29
HL-60 = test system: HL-60
IGROV-1 = test system: IGROV-1
NCI/ADR-RES = test system: NCI/ADR-RES
HCC 2998 = test system: HCC 2998

SMILES: CC(=O)O[C@H]1C(=O)[C@@]2(C)[C@H]([C@H](OC(=O)c3ccccc3)[C@@]3(O)C[C@H](O)C(C)=C1C3(C)C)[C@]1(OC(C)=O)CO[C@@H]1C[C@@H]2O
- GI50 (OVCAR-3): 22.2 µM (inactive)
- GI50 (MCF7): 30.4 µM (inactive)
- GI50 (BT-549): 32.4 µM (inactive)
- GI50 (UACC-62): 36 µM (inactive)
- GI50 (SK-OV-3): 22.7 µM (inactive)
- GI50 (OVCAR-5): 63.5 µM (inactive)
- GI50 (HCT-116): 30.5 µM (inactive)
- GI50 (SNB-19): 69.3 µM (inactive)
- GI50 (Malme-3M): > 100 µM (inactive)
- GI50 (NCI-H460): 24.2 µM (inactive)
- GI50 (NCI-H23): 39.1 µM (inactive)
- GI50 (Hs-578T): 19 µM (inactive)
- GI50 (SR): 12.9 µM (inactive)
- GI50 (SN12C): 49.4 µM (inactive)
- GI50 (HCT-15): 53.3 µM
- GI50 (HT-29): 23.3 µM (inactive)
- GI50 (HL-60): 61.9 µM (inactive)
- GI50 (IGROV-1): 19.5 µM (inactive)
- GI50 (NCI/ADR-RES): > 100 µM (inactive)

SMILES: COC(=O)C1=Nc2c(C)nn(-c3ccccc3)c2N=C(c2ccccc2)C1
- GI50 (OVCAR-3): > 10 µM (inactive)
- GI50 (MCF7): > 10 µM (inactive)
- GI50 (BT-549): > 10 µM (inactive)
- GI50 (UACC-62): > 10 µM (inactive)
- GI50 (SK-OV-3): > 10 µM (inactive)
- GI50 (HCC 2998): > 10 µM (inactive)
- GI50 (OVCAR-5): 0.001 µM (active)
- GI50 (HCT-116): > 10 µM (inactive)
- GI50 (SNB-19): > 10 µM (inactive)
- GI50 (Malme-3M): > 10 µM (inactive)
- GI50 (NCI-H23): > 10 µM (inactive)
- GI50 (Hs-578T): > 10 µM (inactive)
- GI50 (SR): > 10 µM (inactive)
- GI50 (SN12C): > 10 µM (inactive)
- GI50 (HCT-15): > 10 µM
- GI50 (HT-29): > 10 µM (inactive)
- GI50 (HL-60): > 10 µM (inactive)
- GI50 (IGROV-1): > 10 µM (inactive)
- GI50 (NCI/ADR-RES): > 10 µM (inactive)

SMILES: CCOC(=O)C(NC(=O)c1ccco1)(Nc1nc2ccc(OCC)cc2s1)C(F)(F)F (centres undefined)
- GI50 (OVCAR-3): 44.9 µM (inactive)
- GI50 (MCF7): 25.4 µM (inactive)
- GI50 (BT-549): 28.6 µM (inactive)
- GI50 (UACC-62): 35.6 µM (inactive)
- GI50 (SK-OV-3): 52.8 µM (inactive)
- GI50 (HCC 2998): 33.5 µM (inactive)
- GI50 (OVCAR-5): 34.1 µM (inactive)
- GI50 (HCT-116): 27.3 µM (inactive)
- GI50 (SNB-19): 51.4 µM (inactive)
- GI50 (Malme-3M): 37.2 µM (inactive)
- GI50 (NCI-H460): 28.1 µM (inactive)
- GI50 (NCI-H23): 27.3 µM (inactive)
- GI50 (Hs-578T): 38.7 µM (inactive)
- GI50 (SR): 19.3 µM (inactive)
- GI50 (SN12C): 37.9 µM (inactive)
- GI50 (HCT-15): 22.9 µM
- GI50 (HT-29): 32.3 µM (inactive)
- GI50 (HL-60): > 100 µM (inactive)
- GI50 (NCI/ADR-RES): 25.8 µM (inactive)

SMILES: Clc1ccc(-c2ccc(-c3nnc(CCc4nnc(-c5ccc(-c6ccc(Cl)cc6)o5)o4)o3)o2)cc1
- GI50 (OVCAR-3): > 100 µM (inactive)
- GI50 (MCF7): > 61.4 µM (inactive)
- GI50 (BT-549): > 100 µM (inactive)
- GI50 (UACC-62): > 100 µM (inactive)
- GI50 (SK-OV-3): > 45 µM (inactive)
- GI50 (HCC 2998): > 100 µM (inactive)
- GI50 (OVCAR-5): > 100 µM (inactive)
- GI50 (HCT-116): > 100 µM (inactive)
- GI50 (SNB-19): > 100 µM (inactive)
- GI50 (NCI-H460): > 100 µM (inactive)
- GI50 (NCI-H23): > 60.5 µM (inactive)
- GI50 (Hs-578T): 14.8 µM (inactive)
- GI50 (SR): 0.276 µM (active)
- GI50 (SN12C): > 100 µM (inactive)
- GI50 (HCT-15): > 100 µM
- GI50 (HT-29): > 100 µM (inactive)
- GI50 (HL-60): 4.81 µM (inactive)
- GI50 (IGROV-1): > 71.9 µM (inactive)
- GI50 (NCI/ADR-RES): > 100 µM (inactive)

SMILES: C/C=C\C(CC(=O)NCC(=O)c1c[nH]c2ccccc12)CC(=O)OC (centres undefined)
- GI50 (OVCAR-3): > 100 µM (inactive)
- GI50 (MCF7): > 100 µM (inactive)
- GI50 (BT-549): > 100 µM (inactive)
- GI50 (UACC-62): > 100 µM (inactive)
- GI50 (SK-OV-3): > 100 µM (inactive)
- GI50 (HCC 2998): > 100 µM (inactive)
- GI50 (OVCAR-5): > 100 µM (inactive)
- GI50 (HCT-116): > 100 µM (inactive)
- GI50 (SNB-19): > 100 µM (inactive)
- GI50 (Malme-3M): > 100 µM (inactive)
- GI50 (NCI-H460): > 100 µM (inactive)
- GI50 (NCI-H23): > 100 µM (inactive)
- GI50 (Hs-578T): > 100 µM (inactive)
- GI50 (SR): > 100 µM (inactive)
- GI50 (HCT-15): > 100 µM
- GI50 (HT-29): > 100 µM (inactive)
- GI50 (IGROV-1): > 100 µM (inactive)
- GI50 (NCI/ADR-RES): > 100 µM (inactive)

SMILES: O=C1/C(=C\Oc2ccc(F)cc2)N2CCC1CC2
- GI50 (OVCAR-3): > 100 µM (inactive)
- GI50 (MCF7): 49 µM (inactive)
- GI50 (BT-549): 55 µM (inactive)
- GI50 (UACC-62): 25.9 µM (inactive)
- GI50 (SK-OV-3): > 100 µM (inactive)
- GI50 (OVCAR-5): > 100 µM (inactive)
- GI50 (HCT-116): 34.8 µM (inactive)
- GI50 (SNB-19): 56.6 µM (inactive)
- GI50 (Malme-3M): 33.3 µM (inactive)
- GI50 (NCI-H23): 54.5 µM (inactive)
- GI50 (Hs-578T): 28.7 µM (inactive)
- GI50 (SR): 16.4 µM (inactive)
- GI50 (SN12C): 94.6 µM (inactive)
- GI50 (HCT-15): 70.6 µM
- GI50 (HT-29): 60.1 µM (inactive)
- GI50 (HL-60): 35.2 µM (inactive)
- GI50 (IGROV-1): 88.3 µM (inactive)
- GI50 (NCI/ADR-RES): 46.2 µM (inactive)

SMILES: c1ccc(NCCSc2nc3ccccc3s2)cc1
- GI50 (OVCAR-3): 88.3 µM (inactive)
- GI50 (MCF7): 25.8 µM (inactive)
- GI50 (BT-549): 34.8 µM (inactive)
- GI50 (UACC-62): 66.5 µM (inactive)
- GI50 (SK-OV-3): > 100 µM (inactive)
- GI50 (OVCAR-5): 54 µM (inactive)
- GI50 (HCT-116): 37.3 µM (inactive)
- GI50 (SNB-19): > 100 µM (inactive)
- GI50 (Malme-3M): 44.9 µM (inactive)
- GI50 (NCI-H460): 30.9 µM (inactive)
- GI50 (NCI-H23): 29 µM (inactive)
- GI50 (Hs-578T): > 100 µM (inactive)
- GI50 (SR): 39.7 µM (inactive)
- GI50 (SN12C): 46.1 µM (inactive)
- GI50 (HCT-15): 18 µM
- GI50 (HT-29): 30.5 µM (inactive)
- GI50 (HL-60): 32.1 µM (inactive)
- GI50 (IGROV-1): > 100 µM (inactive)
- GI50 (NCI/ADR-RES): 35.9 µM (inactive)

SMILES: CO[C@H]1SC[C@H](OC(C)=O)[C@H](OC(C)=O)[C@H]1OC(C)=O
- GI50 (OVCAR-3): > 100 µM (inactive)
- GI50 (MCF7): > 100 µM (inactive)
- GI50 (BT-549): > 100 µM (inactive)
- GI50 (UACC-62): 93.8 µM (inactive)
- GI50 (HCC 2998): > 100 µM (inactive)
- GI50 (HCT-116): > 100 µM (inactive)
- GI50 (SNB-19): > 100 µM (inactive)
- GI50 (Malme-3M): > 100 µM (inactive)
- GI50 (NCI-H460): > 100 µM (inactive)
- GI50 (NCI-H23): > 100 µM (inactive)
- GI50 (Hs-578T): > 100 µM (inactive)
- GI50 (SR): > 100 µM (inactive)
- GI50 (SN12C): > 100 µM (inactive)
- GI50 (HCT-15): > 100 µM
- GI50 (HT-29): > 100 µM (inactive)
- GI50 (HL-60): > 100 µM (inactive)
- GI50 (IGROV-1): > 100 µM (inactive)
- GI50 (NCI/ADR-RES): > 100 µM (inactive)
